Target: T1, Full length human recombinant HDAC6 protein (Homo sapiens, UniProt Q9UBN7)
T1 sequence (Q9UBN7 1-1215): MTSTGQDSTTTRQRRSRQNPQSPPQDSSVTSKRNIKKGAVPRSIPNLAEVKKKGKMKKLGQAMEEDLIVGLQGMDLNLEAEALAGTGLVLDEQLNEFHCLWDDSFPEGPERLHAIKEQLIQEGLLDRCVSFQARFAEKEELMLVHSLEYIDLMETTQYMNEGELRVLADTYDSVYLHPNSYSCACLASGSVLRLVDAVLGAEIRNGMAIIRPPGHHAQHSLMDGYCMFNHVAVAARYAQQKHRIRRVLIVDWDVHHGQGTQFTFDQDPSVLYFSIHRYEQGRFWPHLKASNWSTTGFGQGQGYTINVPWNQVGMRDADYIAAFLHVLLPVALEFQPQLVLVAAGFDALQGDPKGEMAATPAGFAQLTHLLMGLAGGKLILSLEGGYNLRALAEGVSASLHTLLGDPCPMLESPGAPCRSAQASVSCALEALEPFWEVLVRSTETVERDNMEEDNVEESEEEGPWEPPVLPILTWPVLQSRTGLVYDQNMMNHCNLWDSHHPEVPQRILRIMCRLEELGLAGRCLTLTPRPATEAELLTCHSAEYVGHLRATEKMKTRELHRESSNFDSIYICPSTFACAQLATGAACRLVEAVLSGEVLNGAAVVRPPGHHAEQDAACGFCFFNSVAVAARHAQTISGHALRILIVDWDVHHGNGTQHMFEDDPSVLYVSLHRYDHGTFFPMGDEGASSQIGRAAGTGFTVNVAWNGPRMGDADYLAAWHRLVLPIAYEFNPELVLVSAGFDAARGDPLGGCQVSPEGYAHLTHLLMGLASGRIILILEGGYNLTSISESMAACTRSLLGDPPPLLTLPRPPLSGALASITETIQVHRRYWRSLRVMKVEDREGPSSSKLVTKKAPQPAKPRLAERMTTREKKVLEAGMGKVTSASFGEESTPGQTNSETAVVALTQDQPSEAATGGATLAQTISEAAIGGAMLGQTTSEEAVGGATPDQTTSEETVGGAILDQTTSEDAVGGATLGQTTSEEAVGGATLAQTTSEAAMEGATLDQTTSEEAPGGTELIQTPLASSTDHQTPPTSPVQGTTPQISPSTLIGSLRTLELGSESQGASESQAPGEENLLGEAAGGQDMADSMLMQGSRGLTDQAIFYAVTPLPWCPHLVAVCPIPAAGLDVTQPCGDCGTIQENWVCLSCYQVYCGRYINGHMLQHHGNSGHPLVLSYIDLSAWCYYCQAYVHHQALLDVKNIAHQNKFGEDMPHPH
Assay: In vitro histone deacetylase assay: enzymatic HDAC6 electrophoretic mobility shift assay
Format: biochemical
Details: 1 nM enzyme, 2 μM peptide substrate RHKK(Ac)-NH2, 25° C., 12 concentrations; read-out: Inhibitory Concentration (IC50) Values against HDAC6, Activity Range

IC50 [µM]	Structure (SMILES)
0.1 to 0.5	CC(C)(C)OC(=O)N1CC2(CC(C(=O)N3CCOc4cc(C(=O)NO)ccc4C3)CO2)C1 (stereo not drawn) [tert-butyl 7-(8-(hydroxycarbamoyl)-2,3,4,5-tetrahydrobenzo[f][1,4]oxazepine-4-carbonyl)-5-oxa-2-azaspiro[3.4]octane-2-carboxylate]
≤ 0.1	CO[C@H]1C[C@@H](C(=O)N2Cc3ccc(C(=O)NO)cc3OC[C@@H]2C)C1
0.1 to 0.5	O=C(NO)c1ccc2c(c1)OCCN(C(=O)C(c1ccccc1)N1CCCCC1=O)C2 (stereo not drawn) [N-hydroxy-4-(2-(2-oxopiperidin-1-yl)-2-phenylacetyl)-2,3,4,5-tetrahydrobenzo[f][1,4]oxazepine-8-carboxamide]
≤ 0.1	O=C(NO)c1ccc2c(c1)OCCN(C(=O)C1(c3ccncc3)CC1)C2 [N-hydroxy-4-(1-(pyridin-4-yl)cyclopropane-1-carbonyl)-2,3,4,5-tetrahydrobenzo[f][1,4]oxazepine-8-carboxamide]
0.1 to 0.5	O=C(NO)c1cnc2c(c1)OCCN(C(=O)C1CCCCC1)C2 [4-(cyclohexanecarbonyl)-N-hydroxy-2,3,4,5-tetrahydropyrido[2,3-f][1,4]oxazepine-8-carboxamide]
≤ 0.1	O=C(NO)c1ccc2c(c1)OCCN(C(=O)C1CC3CCC(C1)O3)C2 (stereo not drawn) [4-(8-oxabicyclo[3.2.1]octane-3-carbonyl)-N-hydroxy-2,3,4,5-tetrahydrobenzo[f][1,4]oxazepine-8-carboxamide]
≤ 0.1	CC1(C(=O)N2CCOc3cc(C(=O)NO)ccc3C2)CCOCC1 [N-hydroxy-4-(4-methyltetrahydro-2H-pyran-4-carbonyl)-2,3,4,5-tetrahydrobenzo[f][1,4]oxazepine-8-carboxamide]
0.1 to 0.5	C[C@H]1COc2cc(C(=O)NO)ccc2CN1C(=O)CC1CCOCC1 [(S)-N-hydroxy-3-methyl-4-(2-(tetrahydro-2H-pyran-4-yl)acetyl)-2,3,4,5-tetrahydrobenzo[f][1,4]oxazepine-8-carboxamide]
0.1 to 0.5	CC(C)(C)OC(=O)N1CCC2(CC1)CC(C(=O)N1CCOc3cc(C(=O)NO)ccc3C1)c1ccccc12 (stereo not drawn) [tert-butyl 3-(8-(hydroxycarbamoyl)-2,3,4,5-tetrahydrobenzo[f][1,4]oxazepine-4-carbonyl)-2,3-dihydrospiro[indene-1,4′-piperidine]-1′-carboxylate]
0.1 to 0.5	O=C(NO)c1ccc2c(c1)OCCN(C(=O)C(c1ccccc1)n1cccn1)C2 (stereo not drawn) [N-hydroxy-4-(2-phenyl-2-(1H-pyrazol-1-yl)acetyl)-2,3,4,5-tetrahydrobenzo[f][1,4]oxazepine-8-carboxamide]
≤ 0.1	COCC1(C(=O)N2Cc3ccc(C(=O)NO)cc3OC[C@@H]2C)CC1 [(S)-N-hydroxy-4-(1-(methoxymethyl)cyclopropane-1-carbonyl)-3-methyl-2,3,4,5-tetrahydrobenzo[f][1,4]oxazepine-8-carboxamide]
0.1 to 0.5	CC(C)(O)C(=O)N1CCOc2cc(C(=O)NO)ccc2C1 [N-hydroxy-4-(2-hydroxy-2-methylpropanoyl)-2,3,4,5-tetrahydrobenzo[f][1,4]oxazepine-8-carboxamide]
≤ 0.1	CCC(=O)N1Cc2ccc(C(=O)NO)cc2OC[C@@H]1C [(S)-N-hydroxy-3-methyl-4-propionyl-2,3,4,5-tetrahydrobenzo[f][1,4]oxazepine-8-carboxamide]
0.1 to 0.5	CC(C)(C(=O)N1CCOc2cc(C(=O)NO)ccc2C1)c1ccccc1 [N-hydroxy-4-(2-methyl-2-phenylpropanoyl)-2,3,4,5-tetrahydrobenzo[f][1,4]oxazepine-8-carboxamide]
≤ 0.1	COC(C)(C)C(=O)N1Cc2ccc(C(=O)NO)cc2OC[C@@H]1C [(S)-N-hydroxy-4-(2-methoxy-2-methylpropanoyl)-3-methyl-2,3,4,5-tetrahydrobenzo[f][1,4]oxazepine-8-carboxamide]
0.1 to 0.5	CC(C)(C)OC(=O)N1CCC2(CC1)OC(C(=O)N1CCOc3cc(C(=O)NO)ccc3C1)c1ccccc12 (stereo not drawn) [tert-butyl 3-(8-(hydroxycarbamoyl)-2,3,4,5-tetrahydrobenzo[f][1,4]oxazepine-4-carbonyl)-3H-spiro[isobenzofuran-1,4′-piperidine]-1′-carboxylate]
0.1 to 0.5	Cc1cccc(C)c1C(=O)N1CCOc2cc(C(=O)NO)ccc2C1 [4-(2,6-dimethylbenzoyl)-N-hydroxy-2,3,4,5-tetrahydrobenzo[f][1,4]oxazepine-8-carboxamide]

IC50 [µM]	Structure (SMILES)
≤ 0.1	O=C(NO)c1ccc2c(c1)OCCN(C(=O)[C@@H]1CCCOC1)C2 [(R)-N-hydroxy-4-(tetrahydro-2H-pyran-3-carbonyl)-2,3,4,5-tetrahydrobenzo[f][1,4]oxazepine-8-carboxamide]
0.1 to 0.5	CC(C)[C@@H]1CN(C(=O)C2CCOCC2)Cc2ccc(C(=O)NO)cc2O1 [(R)-N-hydroxy-2-isopropyl-4-(tetrahydro-2H-pyran-4-carbonyl)-2,3,4,5-tetrahydrobenzo[f][1,4]oxazepine-8-carboxamide]
≤ 0.1	CCC1(C(=O)N2CCOc3cc(C(=O)NO)ccc3C2)COC1 [4-(3-ethyloxetane-3-carbonyl)-N-hydroxy-2,3,4,5-tetrahydrobenzo[f][1,4]oxazepine-8-carboxamide]
> 0.5	CS(=O)(=O)N1CCC(CC(=O)N2CCOc3cc(C(=O)NO)ccc3C2)CC1 [N-hydroxy-4-(2-(1-(methylsulfonyl)piperidin-4-yl)acetyl)-2,3,4,5-tetrahydrobenzo[f][1,4]oxazepine-8-carboxamide]
> 0.5	COC[C@@H]1COc2cc(C(=O)NO)ccc2CN1C(=O)C1CCOCC1 [(R)-N-hydroxy-3-(methoxymethyl)-4-(tetrahydro-2H-pyran-4-carbonyl)-2,3,4,5-tetrahydrobenzo[f][1,4]oxazepine-8-carboxamide]
≤ 0.1	O=C(NO)c1ccc2c(c1)OCCN(C(=O)[C@@H]1CCOC1)C2 [(R)-N-hydroxy-4-(tetrahydrofuran-3-carbonyl)-2,3,4,5-tetrahydrobenzo[f][1,4]oxazepine-8-carboxamide]
> 0.5	O=C1CN(C(=O)C2CCCCC2)Cc2cc(C(=O)NO)ccc2N1 [4-(cyclohexanecarbonyl)-N-hydroxy-2-oxo-2,3,4,5-tetrahydro-1H-benzo[e][1,4]diazepine-7-carboxamide]
≤ 0.1	O=C(NO)c1ccc2c(c1)OCCN(C(=O)C1CCC(F)(F)C1)C2 (stereo not drawn) [4-(3,3-difluorocyclopentane-1-carbonyl)-N-hydroxy-2,3,4,5-tetrahydrobenzo[f][1,4]oxazepine-8-carboxamide]
≤ 0.1	COC[C@H]1CN(C=O)Cc2ccc(C(=O)NO)cc2O1 [(R)-4-formyl-N-hydroxy-2-(methoxymethyl)-2,3,4,5-tetrahydrobenzo[f][1,4]oxazepine-8-carboxamide]
0.1 to 0.5	O=C(NO)c1ccc2c(c1)OCCN(C(=O)COc1cccc(Cl)c1)C2 [4-(2-(3-chlorophenoxy)acetyl)-N-hydroxy-2,3,4,5-tetrahydrobenzo[f][1,4]oxazepine-8-carboxamide]
≤ 0.1	C[C@H]1COc2cc(C(=O)NO)ccc2CN1C(=O)C1CCC(OC(F)(F)F)CC1 (single isomer, unassigned)
> 0.5	CC(=O)N1Cc2ccc(C(=O)NO)cc2O[C@H](C)C1 [(R)-4-acetyl-N-hydroxy-2-methyl-2,3,4,5-tetrahydrobenzo[f][1,4]oxazepine-8-carboxamide]
> 0.5	CC(=O)N1Cc2ccc(C(=O)NO)cc2OC[C@H]1C [(R)-4-acetyl-N-hydroxy-3-methyl-2,3,4,5-tetrahydrobenzo[f][1,4]oxazepine-8-carboxamide]
> 0.5	CC(C)[C@@H]1c2ccc(C(=O)NO)cc2OCCN1C(=O)C1COC1 [(R)-N-hydroxy-5-isopropyl-4-(oxetane-3-carbonyl)-2,3,4,5-tetrahydrobenzo[f][1,4]oxazepine-8-carboxamide]
≤ 0.1	C[C@H]1COc2cc(C(=O)NO)ccc2CN1C(=O)CC1CCCO1 (stereo partly drawn) [(3S)-N-hydroxy-3-methyl-4-(2-(tetrahydrofuran-2-yl)acetyl)-2,3,4,5-tetrahydrobenzo[f][1,4]oxazepine-8-carboxamide]
0.1 to 0.5	O=C(NO)c1ccc2c(c1)OCCN(C(=O)C1(Oc3ccccc3)CC1)C2 [N-hydroxy-4-(1-phenoxycyclopropane-1-carbonyl)-2,3,4,5-tetrahydrobenzo[f][1,4]oxazepine-8-carboxamide]

Reference: patent US11891365B2, “3-alkyl-4-amido-bicyclic [4,5,0] hydroxamic acids as HDAC inhibitors” (Valo Health, Inc., priority 2015, dated 2024)
